Source: US20230085307A1, “PYRIDAZINONE COMPOUND AND HERBICIDE” (NISSAN CHEMICAL CORPORATION, priority 2019, published 2023)

Legend:
persian speedwell [1] = assay: Test Example 4: herbicidal effect by soil treatment (Table 19, symbol R); type: in vivo, Persian speedwell (Veronica persica); details: amount of applied herbicide 320 g/ha
Outline: (§1)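 Emulsion of test compound, water-diluted to predetermined amount, sprayed on soil after sowing (seed depth ~1.5 cm, sterilized diluvial soil). Greenhouse, 25–30° C. Effect graded at three weeks post-spray.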

Chinese sprangletop = assay: Test Example 3: herbicidal effect by foliage application, Wagner pot (Table 18, symbol D); type: in vivo, chinese sprangletop (Leptochloa chinensis); details: amount of applied herbicide 320 g/ha
Outline: (§2)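 Plants were sown in alluvial soil held under 0.1–0.5 cm standing water and grown 14 days in a greenhouse at 25–30 °C. An emulsifiable formulation, water-diluted to the set dose, was then sprayed onto the foliage, and effects were scored three weeks later using previously defined criteria.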

barnyard grass [2] = assay: Test Example 3: herbicidal effect by foliage application, Wagner pot (Table 18, symbol H); type: in vivo, barnyard grass (Echinochloa crus-galli); details: amount of applied herbicide 320 g/ha
Outline: as §2

barnyard grass [3] = assay: Test Example 5: herbicidal effect by foliage application, plastic box (Table 20, symbol H); type: in vivo, barnyard grass (Echinochloa crus-galli); details: foliage application, evaluated three weeks after application
Outline: (§3)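 Post-emergence foliar test in sterilized diluvial soil. Compound applied as water-diluted emulsion at a predetermined rate to 14-day-old plants; evaluation at three weeks.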

blackgrass [4] = assay: Test Example 4: herbicidal effect by soil treatment (Table 19, symbol J); type: in vivo, blackgrass (Alopecurus myosuroides); details: amount of applied herbicide 320 g/ha
Outline: as §1

Italian ryegrass [5] = assay: Test Example 5: herbicidal effect by foliage application, plastic box (Table 20, symbol K); type: in vivo, Italian ryegrass (Lolium multiflorum); details: foliage application, evaluated three weeks after application
Outline: as §3

green foxtail [6] = assay: Test Example 5: herbicidal effect by foliage application, plastic box (Table 20, symbol G); type: in vivo, green foxtail (Setaria viridis); details: foliage application, evaluated three weeks after application
Outline: as §3

rice flat sedge = assay: Test Example 3: herbicidal effect by foliage application, Wagner pot (Table 18, symbol E); type: in vivo, rice flat sedge (Cyperus iria); details: amount of applied herbicide 320 g/ha
Outline: as §2

green foxtail [7] = assay: Test Example 4: herbicidal effect by soil treatment (Table 19, symbol G); type: in vivo, green foxtail (Setaria viridis); details: amount of applied herbicide 320 g/ha
Outline: as §1

persian speedwell [8] = assay: Test Example 5: herbicidal effect by foliage application, plastic box (Table 20, symbol R); type: in vivo, Persian speedwell (Veronica persica); details: foliage application, evaluated three weeks after application
Outline: as §3

redroot pigweed [9] = assay: Test Example 4: herbicidal effect by soil treatment (Table 19, symbol N); type: in vivo, redroot pigweed (Amaranthus retroflexus); details: amount of applied herbicide 320 g/ha
Outline: as §1

wild oat [10] = assay: Test Example 5: herbicidal effect by foliage application, plastic box (Table 20, symbol I); type: in vivo, wild oat (Avena fatua); details: foliage application, evaluated three weeks after application
Outline: as §3

Japanese bulrush = assay: Test Example 1: herbicidal activity, application before weed generation under submerged conditions (Table 16, symbol B); type: in vivo, Japanese bulrush (Schoenoplectus juncoides); details: 320 g/ha applied herbicide
Outline: (§4)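 Emulsion formulation, water-diluted to set dose, was put onto the flooded surface (4 cm depth, alluvial soil) the same day weeds were sown and 2.5-leaf rice transplanted. After 3 weeks at 25-30 °C under glass, each species was rated 0 (≤5% kill) to 5 (≥90% kill).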

windgrass [11] = assay: Test Example 5: herbicidal effect by foliage application, plastic box (Table 20, symbol L); type: in vivo, windgrass (Apera spica-venti); details: foliage application, evaluated three weeks after application
Outline: as §3

lambsquarters [12] = assay: Test Example 5: herbicidal effect by foliage application, plastic box (Table 20, symbol O); type: in vivo, lambsquarters (Chenopodium album); details: foliage application, evaluated three weeks after application
Outline: as §3

southern crabgrass [13] = assay: Test Example 4: herbicidal effect by soil treatment (Table 19, symbol F); type: in vivo, southern crabgrass (Digitaria ciliaris); details: amount of applied herbicide 320 g/ha
Outline: as §1

Italian ryegrass [14] = assay: Test Example 4: herbicidal effect by soil treatment (Table 19, symbol K); type: in vivo, Italian ryegrass (Lolium multiflorum); details: amount of applied herbicide 320 g/ha
Outline: as §1

redroot pigweed [15] = assay: Test Example 5: herbicidal effect by foliage application, plastic box (Table 20, symbol N); type: in vivo, redroot pigweed (Amaranthus retroflexus); details: foliage application, evaluated three weeks after application
Outline: as §3

chickweed [16] = assay: Test Example 5: herbicidal effect by foliage application, plastic box (Table 20, symbol P); type: in vivo, common chickweed (Stellaria media); details: foliage application, evaluated three weeks after application
Outline: as §3

late watergrass = assay: Test Example 1: herbicidal activity, application before weed generation under submerged conditions (Table 16, symbol A); type: in vivo, late watergrass (Echinochloa oryzicola); details: 320 g/ha applied herbicide
Outline: as §4

southern crabgrass [17] = assay: Test Example 5: herbicidal effect by foliage application, plastic box (Table 20, symbol F); type: in vivo, southern crabgrass (Digitaria ciliaris); details: foliage application, evaluated three weeks after application
Outline: as §3

velvetleaf [18] = assay: Test Example 5: herbicidal effect by foliage application, plastic box (Table 20, symbol M); type: in vivo, velvetleaf (Abutilon theophrasti); details: foliage application, evaluated three weeks after application
Outline: as §3

windgrass [19] = assay: Test Example 4: herbicidal effect by soil treatment (Table 19, symbol L); type: in vivo, windgrass (Apera spica-venti); details: amount of applied herbicide 320 g/ha
Outline: as §1

chickweed [20] = assay: Test Example 4: herbicidal effect by soil treatment (Table 19, symbol P); type: in vivo, common chickweed (Stellaria media); details: amount of applied herbicide 320 g/ha
Outline: as §1

wild oat [21] = assay: Test Example 4: herbicidal effect by soil treatment (Table 19, symbol I); type: in vivo, wild oat (Avena fatua); details: amount of applied herbicide 320 g/ha
Outline: as §1

oval-leafed pondweed = assay: Test Example 1: herbicidal activity, application before weed generation under submerged conditions (Table 16, symbol C); type: in vivo, oval-leafed pondweed (Monochoria vaginalis); details: 320 g/ha applied herbicide
Outline: as §4

blackgrass [22] = assay: Test Example 5: herbicidal effect by foliage application, plastic box (Table 20, symbol J); type: in vivo, blackgrass (Alopecurus myosuroides); details: foliage application, evaluated three weeks after application
Outline: as §3

lambsquarters [23] = assay: Test Example 4: herbicidal effect by soil treatment (Table 19, symbol O); type: in vivo, lambsquarters (Chenopodium album); details: amount of applied herbicide 320 g/ha
Outline: as §1

velvetleaf [24] = assay: Test Example 4: herbicidal effect by soil treatment (Table 19, symbol M); type: in vivo, velvetleaf (Abutilon theophrasti); details: amount of applied herbicide 320 g/ha
Outline: as §1

barnyard grass [25] = assay: Test Example 4: herbicidal effect by soil treatment (Table 19, symbol H); type: in vivo, barnyard grass (Echinochloa crus-galli); details: amount of applied herbicide 320 g/ha
Outline: as §1

Compound	herbicidal effect on R: persian speedwell (persian speedwell [1])	herbicidal effect on D: Chinese sprangletop (Chinese sprangletop)	herbicidal effect on H: barnyard grass (barnyard grass [2])	herbicidal effect on J: blackgrass (blackgrass [4])	herbicidal effect on E: rice flat sedge (rice flat sedge)	herbicidal effect on G: green foxtail (green foxtail [7])	herbicidal effect on N: redroot pigweed (redroot pigweed [9])	Herbicidal effect on B: Japanese bulrush (grade 0-5) (Japanese bulrush)	herbicidal effect on F: southern crabgrass (southern crabgrass [13])	herbicidal effect on K: Italian ryegrass (Italian ryegrass [14])	Herbicidal effect on A: late watergrass (grade 0-5) (late watergrass)	herbicidal effect on L: windgrass (windgrass [19])	herbicidal effect on P: chickweed (chickweed [20])	herbicidal effect on I: wild oat (wild oat [21])	Herbicidal effect on C: oval-leafed pondweed (grade 0-5) (oval-leafed pondweed)	herbicidal effect on O: lambsquarters (lambsquarters [23])	herbicidal effect on M: velvetleaf (velvetleaf [24])	herbicidal effect on H: barnyard grass (barnyard grass [25])	other results
CCCSc1cccc(-c2sc3ccc(F)cc3c2-c2c(O)c(C)nn(C)c2=O)c1 [2-246]	5 (Herbicidal rate of 90% or more (almost completely withered))	0 (Herbicidal rate of 5% or less (almost no effect))	3 (Herbicidal rate of 40% or more and less than 70%)	0 (Herbicidal rate of 5% or less (almost no effect))	3 (Herbicidal rate of 40% or more and less than 70%)	0 (Herbicidal rate of 5% or less (almost no effect))	0 (Herbicidal rate of 5% or less (almost no effect))	0 (Herbicidal rate of 5% or less (almost no effect))	0 (Herbicidal rate of 5% or less (almost no effect))	0 (Herbicidal rate of 5% or less (almost no effect))	2 (Herbicidal rate of 20% or more and less than 40%)	0 (Herbicidal rate of 5% or less (almost no effect))	3 (Herbicidal rate of 40% or more and less than 70%)	0 (Herbicidal rate of 5% or less (almost no effect))	0 (Herbicidal rate of 5% or less (almost no effect))	0 (Herbicidal rate of 5% or less (almost no effect))	0 (Herbicidal rate of 5% or less (almost no effect))	0 (Herbicidal rate of 5% or less (almost no effect))	herbicidal effect on H: barnyard grass (criteria 0-5) (barnyard grass [3]; 320 g/ha): 0 (Herbicidal rate of 5% or less (almost no effect)); herbicidal effect on K: Italian ryegrass (criteria 0-5) (Italian ryegrass [5]; 320 g/ha): 2 (Herbicidal rate of 20% or more and less than 40%); herbicidal effect on G: green foxtail (criteria 0-5) (green foxtail [6]; 320 g/ha): 0 (Herbicidal rate of 5% or less (almost no effect)); herbicidal effect on R: persian speedwell (criteria 0-5) (persian speedwell [8]; 320 g/ha): 5 (Herbicidal rate of 90% or more (almost completely withered)); herbicidal effect on I: wild oat (criteria 0-5) (wild oat [10]; 320 g/ha): 4 (Herbicidal rate of 70% or more and less than 90%); herbicidal effect on L: windgrass (criteria 0-5) (windgrass [11]; 320 g/ha): 3 (Herbicidal rate of 40% or more and less than 70%); herbicidal effect on O: lambsquarters (criteria 0-5) (lambsquarters [12]; 320 g/ha): 0 (Herbicidal rate of 5% or less (almost no effect)); herbicidal effect on N: redroot pigweed (criteria 0-5) (redroot pigweed [15]; 320 g/ha): 3 (Herbicidal rate of 40% or more and less than 70%); herbicidal effect on P: chickweed (criteria 0-5) (chickweed [16]; 320 g/ha): 5 (Herbicidal rate of 90% or more (almost completely withered)); herbicidal effect on F: southern crabgrass (criteria 0-5) (southern crabgrass [17]; 320 g/ha): 0 (Herbicidal rate of 5% or less (almost no effect)); herbicidal effect on M: velvetleaf (criteria 0-5) (velvetleaf [18]; 320 g/ha): 3 (Herbicidal rate of 40% or more and less than 70%); herbicidal effect on J: blackgrass (criteria 0-5) (blackgrass [22]; 320 g/ha): 1 (Herbicidal rate of 5% or more and less than 20%)
CC(=O)COc1cccc(-c2sc3ccc(F)cc3c2-c2c(O)c(C)nn(C)c2=O)c1 [2-275]	3 (Herbicidal rate of 40% or more and less than 70%)	0 (Herbicidal rate of 5% or less (almost no effect))	3 (Herbicidal rate of 40% or more and less than 70%)	0 (Herbicidal rate of 5% or less (almost no effect))	0 (Herbicidal rate of 5% or less (almost no effect))	4 (Herbicidal rate of 70% or more and less than 90%)	4 (Herbicidal rate of 70% or more and less than 90%)	3 (Herbicidal rate of 40% or more and less than 70%)	5 (Herbicidal rate of 90% or more (almost completely withered))	0 (Herbicidal rate of 5% or less (almost no effect))	3 (Herbicidal rate of 40% or more and less than 70%)	0 (Herbicidal rate of 5% or less (almost no effect))	0 (Herbicidal rate of 5% or less (almost no effect))	0 (Herbicidal rate of 5% or less (almost no effect))	3 (Herbicidal rate of 40% or more and less than 70%)	2 (Herbicidal rate of 20% or more and less than 40%)	1 (Herbicidal rate of 5% or more and less than 20%)	3 (Herbicidal rate of 40% or more and less than 70%)	H: barnyard grass, herbicidal effect (criteria 0-5) (barnyard grass [3]; AAH 320 g/ha): 3 (Herbicidal rate of 40% or more and less than 70%); K: Italian ryegrass, herbicidal effect (criteria 0-5) (Italian ryegrass [5]; AAH 320 g/ha): 0 (Herbicidal rate of 5% or less (almost no effect)); G: green foxtail, herbicidal effect (criteria 0-5) (green foxtail [6]; AAH 320 g/ha): 4 (Herbicidal rate of 70% or more and less than 90%); R: persian speedwell, herbicidal effect (criteria 0-5) (persian speedwell [8]; AAH 320 g/ha): 5 (Herbicidal rate of 90% or more (almost completely withered)); I: wild oat, herbicidal effect (criteria 0-5) (wild oat [10]; AAH 320 g/ha): 0 (Herbicidal rate of 5% or less (almost no effect)); L: windgrass, herbicidal effect (criteria 0-5) (windgrass [11]; AAH 320 g/ha): 0 (Herbicidal rate of 5% or less (almost no effect)); O: lambsquarters, herbicidal effect (criteria 0-5) (lambsquarters [12]; AAH 320 g/ha): 2 (Herbicidal rate of 20% or more and less than 40%); N: redroot pigweed, herbicidal effect (criteria 0-5) (redroot pigweed [15]; AAH 320 g/ha): 4 (Herbicidal rate of 70% or more and less than 90%); P: chickweed, herbicidal effect (criteria 0-5) (chickweed [16]; AAH 320 g/ha): 5 (Herbicidal rate of 90% or more (almost completely withered)); F: southern crabgrass, herbicidal effect (criteria 0-5) (southern crabgrass [17]; AAH 320 g/ha): 5 (Herbicidal rate of 90% or more (almost completely withered)); M: velvetleaf, herbicidal effect (criteria 0-5) (velvetleaf [18]; AAH 320 g/ha): 3 (Herbicidal rate of 40% or more and less than 70%); J: blackgrass, herbicidal effect (criteria 0-5) (blackgrass [22]; AAH 320 g/ha): 0 (Herbicidal rate of 5% or less (almost no effect))
